The structures appear in SMILES notation. In brackets after ≈: the same amount, converted by molar mass.

For this data set the following is noted: buffer; pH 7.4; 6.0 h; 150.0 µM.
`Cc1ccc(C(=O)NC2CCN(c3cnn(CC4CC4)c(=O)c3)CC2)cc1C`: the kinetic solubility is < 1 µg/mL.
As for `Cc1ccc(S(=O)(=O)Nc2cc(Br)ccc2C(=O)Nc2nc(-c3ccccc3)cs2)cc1`, the kinetic solubility was < 1 µg/mL.
In turn, `COc1cccc(-n2nc(C(=O)O)cc2-c2ccc(C3CCCCC3)c(Cl)c2)c1` registered a solubility (kinetic) of 15.2 µg/mL (≈ 37.1 µM).
Next, `CC(C)(O)/C=C\C(=O)[C@](C)(O)[C@H]1[C@H](O)C[C@]2(C)[C@@H]3CC=C4[C@@H](C=C(O)C(=O)C4(C)C)[C@]3(C)C(=O)C[C@@]12C`: > 51 µg/mL; `COc1ccc(/C=C2/C(=O)Nc3ccccc32)cc1O`: 29.2 µg/mL (≈ 109 µM).
For the molecule `CN(C)c1ccccc1-c1csc(N2CCC(C(N)=O)CC2)n1`, the kinetic solubility was > 49 µg/mL.
Take `O=C(Nc1ncc(Cc2ccc(C(F)(F)F)cc2)s1)c1ncc(-c2ccccc2)[nH]1`: the solubility (kinetic) was < 1 µg/mL.
Turning to `Fc1cnc(-c2ccccc2C(F)F)nc1NCc1ccc(-c2cccnc2)cc1`, the kinetic solubility is < 1 µg/mL.
Consider `Nc1ccc(S(=O)(=O)Nc2cnccc2C(=O)Nc2nc(-c3ccccc3)cs2)cc1`, for which the kinetic solubility is 43.2 µg/mL (≈ 95.7 µM).
Consider `CC(=O)N1CCN(c2ccc(OCc3nn(C)c(C)c3-c3cccc4c(CCCOc5cc(C)c(Cl)c(C)c5)c(C(=O)O)n(Cc5cccnc5)c34)cc2)CC1`, for which the kinetic solubility is > 100 µg/mL.
Molecule `CCc1ccc(C2C(C(=O)Nc3ccccc3OC)=C(C)Nc3c(C(=O)Nc4ccc(C)cc4)cnn32)cc1` (configuration not stated) yielded a solubility (kinetic) of 5.74 µg/mL (≈ 11 µM).
Next, `Nc1nc(Nc2ccc(S(N)(=O)=O)cc2)n(C(=S)Nc2c(F)cccc2F)n1`: < 1 µg/mL.
Turning to `COc1cccc(CNc2ccc(S(=O)(=O)Nc3ccc4ccccc4c3)cc2)c1O`, the solubility (kinetic) was < 1 µg/mL.
`COc1ccc(NC(=O)c2c(C)cccc2C)cc1[S+](=O)([O-])N1CCCCCC1` yielded a solubility (kinetic) of 15.8 µg/mL (≈ 37.9 µM).
For the molecule `Cc1cc(C)nc(NC(=S)N2CCN(c3cccc(C(F)(F)F)c3)CC2)c1`, the solubility (kinetic) amounted to 0.748 µg/mL (≈ 1.9 µM).
Regarding `COc1ccc(-n2nc(C3CCCN([S+](=O)([O-])c4cccc(C(F)(F)F)c4)C3)[nH]c2=O)cc1` (configuration not stated), the solubility (kinetic) was < 1 µg/mL.
With `CS(=O)(=O)CCNCc1ccc(-c2ccc3ncnc(Nc4ccc(OCc5cccc(F)c5)c(Cl)c4)c3c2)o1`, the solubility (kinetic) was < 1 µg/mL.
With `Cc1ccc(-c2cc(C(=O)NCc3ccc(S(N)(=O)=O)cc3)c3ccccc3n2)cc1C`, the kinetic solubility is < 1 µg/mL.
Take `O=C1CCCC2=C1C(c1[nH]ncc1Cl)N=C(Nc1nc3c(Cl)cccc3o1)N2` (configuration not stated): the kinetic solubility was determined as 1.83 µg/mL (≈ 4.39 µM).
In the case of `COc1ccc2[nH]c(S(=O)Cc3ncc(C)c(OC)c3C)nc2n1` (configuration not stated), the kinetic solubility was > 51 µg/mL.
Turning to `COc1cccc(Nc2nc(-c3ccncc3)nc3ccccc23)c1`, the solubility (kinetic) was < 1 µg/mL.
As for `COc1ccc(-c2ccc3nc(-c4cc(F)ccc4F)oc3c2)c(OC)c1OC`, the kinetic solubility is < 1 µg/mL.
`CN1CCN(c2ccc(Nc3c4ccccc4nc4ccccc34)cc2)CC1`: the solubility (kinetic) was > 54 µg/mL.
In the case of `Cc1cnc(-c2ccccc2C(C)C)nc1NCC1CCN(c2cccnc2)CC1`, the kinetic solubility is < 1 µg/mL.
`CCOC(=O)c1ccnc2cc(C(OCCN3CCCCC3)c3ccccc3Cl)sc12` (configuration not stated) came in with a kinetic solubility of 56.3 µg/mL (≈ 123 µM).
In the case of `OCc1ccc(-c2ccc(-c3ccc(CO)s3)o2)s1`, the kinetic solubility was > 43 µg/mL.
The value for `COc1ccc(C(=O)CCN(C)C)cc1F` was > 33 µg/mL; that for `Cc1nc(N)nc2ccccc12` was > 24 µg/mL.
In the case of `COc1ccc(-n2nc3c(N4CCCC(C(=O)NCCc5ccc(C)cc5)C4)nnc(C)c3c2C)cc1` (configuration not stated), the kinetic solubility was determined as 4.04 µg/mL (≈ 8.1 µM).
In turn, `CCCc1cc(C)[nH]c(=O)c1CNC(=O)c1cc(-c2ccnc(N3CCN(C)CC3)c2)cc2c1cnn2C(C)C` gave a solubility (kinetic) of 64 µg/mL (≈ 118 µM).
Take `NC(=O)C1CCN(c2nccc(Cl)n2)CC1`: the solubility (kinetic) is > 35 µg/mL.
Consider `CC[C@@H](CO)NC(=O)[C@@H]1C=C2c3cccc4c3c(cn4C)C[C@H]2N(C)C1`, for which the kinetic solubility is > 52 µg/mL.
For the molecule `Nc1cc(-c2nc(Nc3ccc(F)c(F)c3)c3ccccc3n2)ccn1`, the kinetic solubility was < 1 µg/mL.
Next, `Cc1ccc(/C=C/c2nc3ccccc3n2S(=O)(=O)c2ccc(Br)cc2)cc1`: 0.184 µg/mL (≈ 0.406 µM); `Cc1nc([N+](=O)[O-])cn1-c1ccc([N+](=O)[O-])cc1`: > 37 µg/mL.
On to `COc1ccc(Nc2ncnc3c2cnn3-c2ccc(C)cc2)cc1Cl`, for which the kinetic solubility worked out at 0.075 µg/mL (≈ 0.205 µM).
As to `CCCC1=Nc2cc(C(=O)NC3CCCCC3)ccc2Sc2ccc(C)cc21`, the solubility (kinetic) was found to be 1.37 µg/mL (≈ 3.48 µM).
`CCOC(=O)c1[nH]c(C)c(CCC(=O)N2CCN(c3cc(Cl)ccc3C)CC2)c1C`: the solubility (kinetic) was 2.74 µg/mL (≈ 6.35 µM).
Next, `O=C(c1cccs1)c1nonc1C(=O)c1cccs1`: < 1 µg/mL; `Cc1ccccc1CSc1nc2ncc(Br)cc2[nH]1`: < 1 µg/mL; `CCc1cccc(NC(=O)CSc2nc3ccccc3nc2N2CCCCC2)c1`: < 1 µg/mL.
Next, `O=C(Nc1nc(-c2ccc(F)cc2)cs1)c1ccncc1NS(=O)(=O)c1ccc(F)cc1`: 30.2 µg/mL (≈ 63.9 µM).
For the molecule `O=C(Nc1nc(-c2ccccc2)cs1)c1ccncc1NS(=O)(=O)c1cccc(Cl)c1`, the kinetic solubility is < 1 µg/mL.
Next, `COc1ccc(Nc2cnc3ccc(-c4ccc(OC)c(OC)c4)nn23)cc1`: < 1 µg/mL; `Cc1ccnc(NC(=S)N2CCN(c3ncc(C(F)(F)F)cc3Cl)CC2)c1`: 12 µg/mL (≈ 29 µM).
In the case of `O=C(c1ccc2c(c1)ncn2-c1cccc(C(F)(F)F)c1)N1CCCCC1`, the solubility (kinetic) was > 55 µg/mL.
As to `CCCCCCOc1ccc(OC(=O)c2ccncc2)cc1`, the kinetic solubility is < 1 µg/mL.
`O=c1n(-c2ccc(Cl)cc2)nc2n1CCN(Cc1ccc(C(F)(F)F)cc1)C2`: the solubility (kinetic) is < 1 µg/mL.
In the case of `Cc1ccc2c(c1)/C(=C\c1cc(Cl)c(O)c(Cl)c1)C(=O)N2`, the kinetic solubility is 15.4 µg/mL (≈ 48.1 µM).
Take `C=C1c2cccc(O)c2C(O)=C2C(=O)[C@]3(O)C(O)=C(C(N)=O)C(=O)[C@@H](N(C)C)[C@@H]3[C@@H](O)[C@H]12`: the solubility (kinetic) is > 65 µg/mL.
With `Cc1ccccc1C(=O)N1CCc2cc(-c3csc(NC(=O)Cc4ccc5c(c4)OCO5)n3)ccc21`, the solubility (kinetic) is < 1 µg/mL.
`COc1ccc(NC(=O)c2[nH]c(C)c(C(C)=O)c2C)cc1S(=O)(=O)Nc1cccc(C#N)c1`: the solubility (kinetic) is 2.28 µg/mL (≈ 4.9 µM).
`Nc1nc2c(s1)C(c1ccccc1OCc1ccccc1Cl)CC(=O)N2` (configuration not stated) came in with a solubility (kinetic) of 2.06 µg/mL (≈ 5.34 µM).
For `COc1cc(-c2c(C#N)c(N)nc3c2c(C)nn3-c2ccc(F)cc2)ccc1O`, the solubility (kinetic) is < 1 µg/mL.
Take `O=[S+]([O-])(Nc1ccc(C2CCNCC2)cc1)c1ccc(NCc2ccc(Br)cc2O)cc1`: the kinetic solubility was found to be 12.8 µg/mL (≈ 24.8 µM).
As for `COc1ccc(-n2nc(C3CCCN(C(=O)c4ccccc4F)C3)[nH]c2=O)cc1` (configuration not stated), the kinetic solubility is 37.3 µg/mL (≈ 94.1 µM).
Molecule `Fc1ccc(Nc2nc(-c3ccncc3)cc3ccccc23)cc1F` displayed a solubility (kinetic) of 1.26 µg/mL (≈ 3.79 µM).
Next, `CCn1c(=O)cc(OCC(=O)N2CCN(c3cccc(Cl)c3)CC2)c2ccccc21`: 2.64 µg/mL (≈ 6.2 µM); `Cn1c(C(=O)NCCc2ccccn2)nc2nc(-c3ccccc3)c(Cl)cc21`: 1.11 µg/mL (≈ 2.84 µM); `CC(C)(C)n1nc(-c2ccc(Cl)cc2)c2c(N)ncnc21`: < 1 µg/mL.
Turning to `NC(=O)C1CCN(c2nc(-c3cccnc3)cs2)CC1`, the solubility (kinetic) is > 43 µg/mL.
Take `Cc1cc(C)c(C(=O)Nc2cccc([S+](=O)([O-])Nc3ccc(Br)cc3)c2)[nH]1`: the solubility (kinetic) was < 1 µg/mL.
For `Cn1c(=O)c2c(nc(Cl)n2Cc2ccc(Cl)cc2)n(C)c1=O`, the kinetic solubility is 2.15 µg/mL (≈ 6.32 µM).
In turn, `Cc1sc(NC(=O)Cc2ccc3c(c2)OCO3)nc1-c1ccc2c(c1)CCN2C` registered a kinetic solubility of 1.07 µg/mL (≈ 2.63 µM).
Regarding `O=C(NCc1ccc(N2CCCC2)nc1)c1cc(Cl)ccc1O`, the kinetic solubility stood at 1.3 µg/mL (≈ 3.93 µM).
As for `Cc1nnc2c3ccccc3nc(N3CCN(c4ccccc4)CC3)n12`, the kinetic solubility is < 1 µg/mL.
`COc1cc(NS(=O)(=O)c2ccc(C)cc2)cc(C(=O)Nc2nc(-c3ccccc3)cs2)c1`: the solubility (kinetic) is < 1 µg/mL.
Take `Cc1ccc([S+](=O)([O-])n2cc(Cc3ccc(-c4ccccc4)cc3)c3ccccc32)cc1`: the solubility (kinetic) was < 1 µg/mL.
The value for `Cc1c(Cl)cccc1-n1ncc(C(=O)Nc2ccc(Br)cc2F)c1C1CCNCC1` was > 72 µg/mL; that for `COc1ccccc1Nc1ccnc(N2CCN(C(=O)c3ccc(F)cc3)CC2)n1` was 10.8 µg/mL (≈ 26.5 µM); that for `Fc1ccc(Nc2nc(-c3ccccc3)nc3ccccc23)cc1F` was < 1 µg/mL.
Consider `CC#CC(=O)N1CCC[C@H]1c1nc(-c2ccc(C(=O)Nc3ccccn3)cc2)c2c(N)nccn12`, for which the kinetic solubility is > 69 µg/mL.
For `Clc1ccc2ncc(-c3cccc(NC4CNC4)n3)n2c1`, the kinetic solubility is > 44 µg/mL.
As to `COc1cc2c(cc1OCCCN1CCCC1)N=C(N)C21CCC1`, the kinetic solubility is > 49 µg/mL.
In the case of `CC1CCN(S(=O)(=O)c2ccc3c(ccc(=O)n3CC(=O)NCc3ccc(Cl)cc3)c2)CC1`, the solubility (kinetic) is < 1 µg/mL.
The value for `Cc1cccc(CN2CCN(c3ccccn3)CC2)c1` was 30.9 µg/mL (≈ 115 µM); that for `CC1CN(c2ccc(Nc3nc(-c4ccncc4)nc4ccccc34)cc2F)CC(C)O1` (configuration not stated) was < 1 µg/mL; that for `COCCOc1cnc2ccn([C@H](C)c3nnc4c(F)cc(-c5cnn(C)c5)cn34)c(=O)c2c1` was > 68 µg/mL.
Regarding `O=[S+]([O-])(Nc1ccc2ccccc2c1)c1ccc(NCc2ccc(Cl)cc2O)cc1`, the kinetic solubility was < 1 µg/mL.
Regarding `Cc1ccc(S(=O)(=O)Nc2cnccc2C(=O)Nc2ccc(S(=O)(=O)Nc3nccs3)cc2)cc1`, the solubility (kinetic) is > 63 µg/mL.
Regarding `CN1CCN(C(=O)Cc2c[nH]c3ncc(-c4ccccc4Oc4ccccc4)cc23)CC1`, the kinetic solubility was > 42 µg/mL.
For the molecule `CN1CCN(Cc2ccc(NC(=O)Cc3ccc(Oc4cc(NC(=O)C5CC5)ncn4)cc3)cc2C(F)(F)F)CC1`, the kinetic solubility is 57.3 µg/mL (≈ 101 µM).
On to `COC(=N)c1nc2ccc3ncnc(Nc4ccc(F)cc4Br)c3c2s1`, for which the solubility (kinetic) was < 1 µg/mL.
As to `O=C1CCCC2=C1C(c1ccccc1I)N=C(Nc1nc3ccccc3o1)N2` (configuration not stated), the solubility (kinetic) was < 1 µg/mL.
As to `NC1CCC(Nc2nc(Nc3ccc(C(=O)N4CCCCC4)cc3)c3ncn(-c4cccc(F)c4)c3n2)CC1` (configuration not stated), the kinetic solubility is 57.5 µg/mL (≈ 109 µM).
Regarding `O=C(NC1CCCc2c1[nH]c1ccc(Cl)cc21)c1ccncc1` (configuration not stated), the solubility (kinetic) is < 1 µg/mL.
`Cc1ccc(-n2ncc3c(NCCCn4ccnc4)ncnc32)cc1Cl` showed a kinetic solubility of 4.07 µg/mL (≈ 11.1 µM).

By kinetic solubility is commonly meant the concentration staying in solution when a stock, usually in DMSO, is diluted into the medium.
